From PubChem BioAssay AID1963870 (Molecular Pharmacology Branch, DTP, NCI, 2024)

Test system: 292921-168-R-J2-PDC KRAS tumor spheroid viability
Assay: Anticancer human tumor 292921-168-R-J2-PDC patient-derived pancreatic carcinoma cell line growth inhibition [KRAS2]
Conditions: spheroids with HUVEC and MSC; for IC50: curve of first compound; for viability, T/C: stronger effect = lower value
Procedure, shortened: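 KRAS-mutant tumor cells were grown as spheroids with HUVEC endothelial cells and human MSCs as stroma. Targeted agents were tested alone and with KRAS pathway inhibitors. Doses started at or near clinical Cmax, or 10 microM, descending half-log.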

[1] = second compound 0.0316 µM, first compound 0.000316 µM
[2] = second compound 0.0316 µM, first compound 0.001 µM
[3] = second compound 0.0316 µM, first compound 0.00316 µM
[4] = second compound 0.0316 µM, first compound 0.01 µM
[5] = second compound 0.0316 µM, first compound 0.0316 µM
[6] = second compound 0.1 µM, first compound 0.000316 µM
[7] = second compound 0.1 µM, first compound 0.001 µM
[8] = second compound 0.1 µM, first compound 0.00316 µM
[9] = second compound 0.1 µM, first compound 0.01 µM
[10] = second compound 0.1 µM, first compound 0.0316 µM
[11] = second compound 0.316 µM, first compound 0.000316 µM
[12] = second compound 0.316 µM, first compound 0.001 µM
[13] = second compound 0.316 µM, first compound 0.00316 µM
[14] = second compound 0.316 µM, first compound 0.01 µM
[15] = second compound 0.316 µM, first compound 0.0316 µM
[16] = second compound 1 µM, first compound 0.000316 µM
[17] = second compound 1 µM, first compound 0.001 µM
[18] = second compound 1 µM, first compound 0.00316 µM
[19] = second compound 1 µM, first compound 0.01 µM
[20] = second compound 1 µM, first compound 0.0316 µM
[21] = second compound 3.16 µM, first compound 0.000316 µM
[22] = second compound 3.16 µM, first compound 0.001 µM
[23] = second compound 3.16 µM, first compound 0.00316 µM
[24] = second compound 3.16 µM, first compound 0.01 µM
[25] = second compound 3.16 µM, first compound 0.0316 µM
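Note: drug exposure lasted seven days after spheroids formed for three days.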
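Throughout, for viability, T/C: percent of DMSO vehicle control viability which is 100%.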

## CC(=O)Nc1cccc(-n2c(=O)n(C3CC3)c(=O)c3c(Nc4ccc(I)cc4F)n(C)c(=O)c(C)c32)c1 + C=CC(=O)N1CCN(c2nc(OCC3CCCN3C)nc3c2CCN(c2cccc4cccc(C)c24)C3)CC1CC#N
Second compound 0.0316 µM
  IC50: 0.281 nM
Second compound 0.1 µM
  IC50: 0.238 nM
Second compound 0.316 µM
  IC50: 0.145 nM
Second compound 1 µM
  IC50: < 0.1 nM
Second compound 3.16 µM
  IC50: < 0.1 nM
Second compound 0.0316 µM, first compound 0.0001 µM
  viability, T/C: 78.2%
[1]
  viability, T/C: 46.6%
[2]
  viability, T/C: 27.2%
[3]
  viability, T/C: 18.6%
[4]
  viability, T/C: 11.9%
[5]
  viability, T/C: 8.52%
Second compound 0.1 µM, first compound 0.0001 µM
  viability, T/C: 63.3%
[6]
  viability, T/C: 45.9%
[7]
  viability, T/C: 29.1%
[8]
  viability, T/C: 17.6%
[9]
  viability, T/C: 12.4%
[10]
  viability, T/C: 7.9%
Second compound 0.316 µM, first compound 0.0001 µM
  viability, T/C: 56.5%
[11]
  viability, T/C: 36.5%
[12]
  viability, T/C: 23%
[13]
  viability, T/C: 13.5%
[14]
  viability, T/C: 10.3%
[15]
  viability, T/C: 7.06%
Second compound 1 µM, first compound 0.0001 µM
  viability, T/C: 42.7%
[16]
  viability, T/C: 21.9%
[17]
  viability, T/C: 13.3%
[18]
  viability, T/C: 9.17%
[19]
  viability, T/C: 6.87%
[20]
  viability, T/C: 5.25%
Second compound 3.16 µM, first compound 0.0001 µM
  viability, T/C: 0.18%
[21]
  viability, T/C: 0.2%
[22]
  viability, T/C: 0.11%
[23]
  viability, T/C: 0.27%
[24]
  viability, T/C: 0.11%
[25]
  viability, T/C: 0.17%

## CC(C)n1nc(-c2ccc3oc(N)nc3c2)c2c(N)ncnc21 + C=CC(=O)N1CCN(c2nc(OCC3CCCN3C)nc3c2CCN(c2cccc4cccc(C)c24)C3)CC1CC#N
Second compound 0.0316 µM
  IC50: 2.49 nM
Second compound 0.1 µM
  IC50: 2.84 nM
Second compound 0.316 µM
  IC50: 1.07 nM
Second compound 1 µM
  IC50: < 0.316 nM
Second compound 3.16 µM
  IC50: < 0.316 nM
[1]
  viability, T/C: 78.8%
[2]
  viability, T/C: 62.7%
[3]
  viability, T/C: 48.3%
[4]
  viability, T/C: 30.8%
[5]
  viability, T/C: 25.3%
Second compound 0.0316 µM, first compound 0.1 µM
  viability, T/C: 21.1%
[6]
  viability, T/C: 83.3%
[7]
  viability, T/C: 70.8%
[8]
  viability, T/C: 47.3%
[9]
  viability, T/C: 31%
[10]
  viability, T/C: 21.4%
Second compound 0.1 µM, first compound 0.1 µM
  viability, T/C: 20.9%
[11]
  viability, T/C: 70.2%
[12]
  viability, T/C: 50.5%
[13]
  viability, T/C: 36.9%
[14]
  viability, T/C: 28.6%
[15]
  viability, T/C: 21.6%
Second compound 0.316 µM, first compound 0.1 µM
  viability, T/C: 18.5%
[16]
  viability, T/C: 30.9%
[17]
  viability, T/C: 25.5%
[18]
  viability, T/C: 23.8%
[19]
  viability, T/C: 17.8%
[20]
  viability, T/C: 15.7%
Second compound 1 µM, first compound 0.1 µM
  viability, T/C: 13.8%
[21]
  viability, T/C: 1.12%
[22]
  viability, T/C: 0.57%
[23]
  viability, T/C: 0.82%
[24]
  viability, T/C: 0.33%
[25]
  viability, T/C: 0.47%
Second compound 3.16 µM, first compound 0.1 µM
  viability, T/C: 0.73%
